Laboratory results from US10024856B2, “Identification and characterization of a peptide affinity reagent for the detection of noroviruses in clinical samples” (priority 2013, dated 2018).

Tested on: NV-VLP
Settings: 0-5 μg NV-VLP adsorbed on 96-well plate; 5×10^10 pfu of phage; HRP-conjugated M13 phage antibody
Procedure: NV-VLP (5, 2.5, 1.25, 0.63 μg) or 5 μg of unrelated protein BSA was immobilized and binding of each phage, indicated on the X-axis, was detected by M13 phage antibody. OD450 signal is indicated on the Y-axis.
Enzyme-linked immunosorbent assay (ELISA)—Initial ELISA experiments were performed by directly coating 0-5 μg of NV-VLP in 96-well polystyrene plates overnight. Wells were blocked with 2% milk in PBS for 2 hours at room temperature. After washing 3 times with PBS, 1×10^11 phage in 1% milk-PBS were added and incubated at room temperature with gentle rocking for 2 hours. Plates were washed 10 times with PBS-T. HRP-conjugated M13-antibody (Pharmacia Biotech) was diluted 1:5000 in 1% milk PBS and 100 μl was added to each well and incubated at room temperature for 45 minutes. After washing with PBS-T, HRP substrate, 3,3′,5′-tetramethylbenzidine (TMB)(KPL) was added to each well. Development was allowed to proceed for 10-20 minutes and stopped with 1M H3PO4 (KPL). Optical density was measured at 450 nm on a Tecan infinite M200pro plate reader.
The binding of each phage clone to immobilized NV-VLP was tested by phage ELISA. For these experiments, 0-5 μg of NV-VLP or bovine serum albumin (BSA), as a negative control, was adsorbed onto a 96-well plate and 5×10^10 pfu of phage were added to each well and binding was detected with an HRP-conjugated M13 phage antibody (FIG. 1).

Sequence of NV-VLP (Q83884 whole entry): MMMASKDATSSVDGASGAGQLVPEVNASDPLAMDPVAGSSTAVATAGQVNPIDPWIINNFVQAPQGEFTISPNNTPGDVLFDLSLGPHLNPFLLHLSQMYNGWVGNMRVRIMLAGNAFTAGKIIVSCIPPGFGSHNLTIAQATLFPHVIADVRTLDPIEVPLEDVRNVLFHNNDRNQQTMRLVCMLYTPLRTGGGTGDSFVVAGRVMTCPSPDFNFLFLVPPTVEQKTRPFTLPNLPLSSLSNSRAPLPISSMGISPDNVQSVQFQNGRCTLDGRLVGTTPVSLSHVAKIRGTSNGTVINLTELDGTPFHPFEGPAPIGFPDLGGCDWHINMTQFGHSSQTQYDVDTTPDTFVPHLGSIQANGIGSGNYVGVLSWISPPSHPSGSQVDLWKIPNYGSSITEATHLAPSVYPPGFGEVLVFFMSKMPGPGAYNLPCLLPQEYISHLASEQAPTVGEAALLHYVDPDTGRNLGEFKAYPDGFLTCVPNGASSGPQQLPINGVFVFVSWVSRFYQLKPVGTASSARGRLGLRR

IQYRSWIPFSYP [NV-O-R5-6]
Binding to immobilized NV-VLP (ELISA signal, OD450): weakest signals
